Measured values from US20110300529A1, “DETECTION OF IFI16 IN BODY FLUIDS” (NoToPharm srl, priority 2008, published 2011).

How the values were obtained:
[1] = tested on: Human Keratinocyte monolayers; assay: Western blot analysis of extracellular IFI16 in supernatants of cells undergoing cell death; assay type: cell-based; conditions: 16 h after treatment, TCA-concentrated supernatant, immunoblotting
Procedure: (§1) Human Keratinocyte monolayers were UVB-irradiated at different doses (200, 400, and 800 J/m^2 respectively), treated with 2 μM Doxorubicin (Doxo) and 80 μM Etoposide (VP-16), or left untreated. At 16 h after treatment, the supernatant was collected and separated for determination of extracellular IFI16, while the remaining cells were lysed for determination of the intracellular cleaved form of PARP (determination of undergoing cell death). Collected supernatants were concentrated with TCA 25% as described in Example 4. […]
Supernatants of human primary keratinocytes cultured in serum-free medium (Epilife, Cascade Biologics, USA) were subjected to precipitation with trichloroacetic acid (TCA). Precipitated protein were analyzed by immunoblotting. […]
(§2) Migrated proteins were transferred to nitrocellulose. The membranes were blocked in TBS/0.05% Tween20/5% BSA and extracellular IFI16 was detected by incubation of the membrane bearing surnatants samples with anti-IFI16 mouse monoclonal antibody (clone 1G7, Santa Cruz, Calif., USA). The intracellular cleaved form of PARP was detected by incubation of the membrane bearing cell extract samples by rabbit anti-PARP cleaved antibody (GTX24830, GeneTex, CA, USA). […]

[2] = tested on: Human Keratinocyte monolayers; assay: Intracellular cleaved form of PARP (determination of undergoing cell death) by immunoblotting; assay type: cell-based; conditions: 16 h after treatment, cell lysate
Procedure: as §1, with “4. An equal amount of total cellular protein per sample and an equal volume of concentrated supernatants were fractionated on SDS-PAGE (7.5% of NEXT GEL Amresco, OH, USA) and transferred to a nitrocellulose membrane (Biorad, CA, USA).” for “4.”
As control of the undergoing cell death induced by the treatment with UVB-irradiation and Doxo or VP-16, also the intracellular PARP cleavage was determined in the exposed keratinocyte. […]
as §2

SMILES	presence of extracellular IFI16 in supernatants ([1]; 2 μM Doxorubicin)	cell death as demonstrated by PARP cleavage ([2]; 2 μM Doxorubicin)	presence of extracellular IFI16 in supernatants ([1]; 80 μM Etoposide)	cell death as demonstrated by PARP cleavage ([2]; 80 μM Etoposide)
COc1cccc2c1C(=O)c1c(O)c3c(c(O)c1C2=O)C[C@@](O)(C(=O)CO)C[C@@H]3O[C@H]1C[C@H](N)[C@H](O)[C@H](C)O1 [Doxorubicin]	not observed	chemically-induced cell death		
COc1cc([C@@H]2c3cc4c(cc3[C@@H](O[C@@H]3O[C@@H]5CO[C@@H](C)O[C@H]5[C@H](O)[C@H]3O)[C@H]3COC(=O)[C@H]23)OCO4)cc(OC)c1O [Etoposide]			not observed	chemically-induced cell death
